Laboratory results: patent publication US20230414771A1, “PREPARATION AND USE OF IMMUNOSTIMULATORY CONJUGATED COMPLEXES FOR TARGETED DELIVERY AND ACTIVATION” (YAFEI SHANGHAI BIOLOGY MEDICINE SCIENCE & TECHNOLOGY CO., …, priority 2020, published 2023)
Where a SMILES comes first, the peptide text is derived from it. The star is where a group is joined. Doxorubicin(3'-N) = COc1cccc2c1C(=O)c1c(O)c3c(c(O)c1C2=O)C[C@@](O)(C(=O)CO)C[C@@H]3O[C@H]1C[C@H](N*)[C@H](O)[C@H](C)O1; Hexanoyl(6-maleimido) = O=C1C=CC(=O)N1CCCCCC(=O)*

Tests used:
[1] = system: acidified human breast cancer (MDA-MB435) tumor tissue homogenate; experiment: Activation efficiency of S-C-A linkers in tumor tissue homogenate, HPLC; assay type: biochemical; conditions: Table 2-1; C is AAN; 1 mg/ml, homogenate pH 6.0, 37° C.
Protocol: When C is AAN, the activation of the different S-C-A linkers and the control linker is evaluated in an activation assay. They were dissolved and diluted tenfold using S-C-A conjugates to a concentration of 0.1 mM/ml. The sample compounds were added at a concentration of 1 mg/ml to 100 μg of acidified human breast cancer (MDA—MB435) tumor tissue homogenate (pH 6.0) at 37° C. The enzyme in the tumor tissue homogenate was released and detected by HPLC to compare the efficiency of activation of the linker by the tumor tissue.
The effect of the D-type tripeptide on the activation efficiency was examined in comparison to the native peptide sequence linker cleaved by Legumain, S1 in MI-S is —CH2CH2—CONH—, S2: 2 peg.

[2] = Water solubility test (observation and HPLC); assay type: physicochemical; conditions: thermodynamic from solid
Protocol: The compounds prepared in accordance with the examples of the disclosure and the reference compounds C1, C2, C3 and C4 were lyophilized (−70° C.).

[3] = system: CT26 tumors orthotopically transplanted in liver; experiment: Orthotopic liver CT26 tumors, EMC-AANL-DOX, lenvatinib and PD-1; assay type: in vivo, BALB/c mice; conditions: 18 μmol/kg IV once weekly for 3 weeks
Protocol: 5×10^5 CT26 cells were injected subcutaneously into the back of nude mice. Randomization was performed when the tumor size reached 800-1000 mm^3. Tumor tissue was then extracted and cut into 100 mm^3 tumor tissue pieces and transplanted orthotopically into BALB/c mouse livers. After one week, when the orthotopically transplanted tumors grew, the mice with orthotopically transplanted tumors were randomized. • 2) Treatment course: 6 mice in one group were treated with drugs. The day of treatment was Day 1. According to the clinical application of EMC-AANL-DOX, the drug was administered intravenously (IV) once weekly for 3 weeks.

[4] = system: Human fibrosarcoma HT-1080 tumor tissue homogenate; experiment: Activation in HT-1080 tumor tissue homogenate; assay type: biochemical; conditions: HT-1080 homogenate pH 6.0, 37° C., 1 mg/ml
Protocol: (§1) In the experiments of the present disclosure, 1 mg/ml of the sample compound was added to 100 μg of acidified tumor tissue homogenate (pH 6.0) at 37° C. The enzyme in the tumor tissue homogenate can cause the release of doxorubicin, and the reduction of compound and the increase of doxorubicin could be detected by HPLC to compare the activation efficiency of the drug in the tumor tissue.

[5] = system: Human live cancer Hep G2 tumor tissue homogenate; experiment: Activation in Hep G2 tumor tissue homogenate; assay type: biochemical; conditions: Hep G2 homogenate pH 6.0, 37° C., 1 mg/ml
Protocol: as §1

CD8+ T cells = experiment: MTT cytotoxicity on CD8+ T cells; assay type: cell-based, C57BL/6 mouse; conditions: 48 hours, relative to C3
Protocol: • 1) Take the spleen of C57BL/6 mouse, place it on the culture dish with 40 uM screen (ice bath), add about 10 mL of normal saline, and gently grind with sterile syringe core. • 2) Transfer the ground cell suspension into a 50 mL centrifuge tube, add about 5 mL of normal saline to rinse the petri dish, and also transfer it into the 50 mL centrifuge tube, and combine the suspensions. • 3) Centrifuge the cell suspension at 1000 r/min for 10 min, discard the supernatant, and add an appropriate volume of normal saline to resuspend. Then add 3 times volume of ammonium chloride erythrocyte lysate, pipetting evenly. After lysing on ice for about 10 min, add 10 mL of normal saline to stop the lysing, and centrifuge at 1000 r/min for 5 min. • 4) After centrifugation, discard the supernatant, add 10 mL of physiological saline, pipette evenly, centrifuge at 1000 r/min for 5 min, and repeat the above operation once. Cells were then resuspended in 10% RMPI 1640 medium for subsequent culture or in 0.5% BSA for subsequent T cell sorting. […]
• A. Washing of CD3/CD28 magnetic beads: a. […] The cells were transferred to another tube to remove the beads as completely as possible and cultured in medium supplemented with […] (which could be increased according to the actual situation) and their status, proliferation and viability were monitored. […]

[6] = Tissue distribution of released doxorubicin in orthotopic liver CT26 tumor mice; assay type: in vivo, BALB/c mice
Protocol: • Objective: To investigate the tissue distribution of activating drugs in liver tumors. • Test animals: BALB/c mice, 6-8 weeks old, all female.
• 1) CT26 cells were purchased from ATCC. […] Randomization was performed when the tumor size reached 800-1000 mm^3. Tumor tissue was then extracted and cut into 100 mm^3 tumor tissue pieces and transplanted orthotopically into BALB/c mouse livers. • 3) Administration process: After 14 days, when the orthotopically transplanted tumor grew, a group of 36 orthotopically transplanted tumor mice were treated with drugs. […] The previously published use of EMC-AANL-DOX was for breast cancer treatment.

Structure (SMILES)	Activation efficiency (%) [1]	solubility [2]	efficacy combined with lenvatinib (FIG. 11) [3]	efficacy combined with PD-1 (FIG. 11) ([3]; PD-1 5 mg/kg twice weekly)	Compound activation ratios (%) [4]	Compound activation ratios (%) [5]	cytotoxicity against CD8+ T cells (FIG. 5) (CD8+ T cells)	doxorubicin delivery and activation compared with EMC-AANL-DOX ([6]; liver and in situ liver tumor)	distribution of active doxorubicin (FIGS. 8 and 9) ([6]; tissues collected at 1-72 hr, AUClast)
COc1cccc2c1C(=O)c1c(O)c3c(c(O)c1C2=O)C[C@@](O)(C(=O)CO)C[C@@H]3O[C@H]1C[C@H](NC(=O)[C@H](CC(C)C)NC(=O)[C@H](CC(N)=O)NC(=O)[C@H](C)NC(=O)[C@H](C)NC(=O)CCCCCN2C(=O)C=CC2=O)[C@H](O)[C@H](C)O1 [EMC-AANL-DOX] ({Hexanoyl(6-maleimido)}-AANL-{Doxorubicin(3'-N)})	56.4%	< 5000 µg/mL	superior to that of each monotherapy	superior to that of lenvatinib combined with PD-1	44.7%	75.3%			
COc1cccc2c1C(=O)c1c(O)c3c(c(O)c1C2=O)C[C@@](O)(C(=O)CO)C[C@@H]3O[C@H]1C[C@H](NC(=O)[C@H](CC(C)C)NC(=O)[C@H](CC(N)=O)NC(=O)[C@H](C)NC(=O)[C@H](C)NC(=O)CCOCCOCCNC(=O)CCN2C(=O)C=CC2=O)[C@H](O)[C@H](C)O1 [QHL-087-DOX]							less cytotoxicity against CD8+ T cells	enhanced doxorubicin delivery and activation in situ liver cancer	mainly distributed in the liver and liver orthotopic tumors
